# In PubChem BioAssay AID328 (DTP/NCI, 2004):
# Values joined by “and” are separate entries in the source; they are usually repeats but may differ in a detail not shown here. Equal entries are not always repeated. Toxic doses and inconclusive results are not listed.
# Tested on: BDF1 mice, P388 leukemia ip, median survival T/C
# Assay: NCI In Vivo Anticancer Drug Screen. Data for tumor model P388 Leukemia (intraperitoneal) in B6D2F1 (BDF1) mice
# Conditions: endpoint: median survival time, higher = longer survival
# Method in brief: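 Antitumour effect was judged in vivo: survival in drug-treated mice, normalised to that of vehicle-dosed controls, gives the reported T/C.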
# [1] = dose: 100.0 mg/kg/injection, schedule: Q04DX003 (ip), vehicle: saline sonified
# [2] = dose: 200.0 mg/kg/injection, schedule: Q04DX003 (ip), vehicle: saline sonified
# [3] = dose: 50.0 mg/kg/injection, schedule: Q01DX009 (ip), vehicle: saline
# [4] = dose: 100.0 mg/kg/injection, schedule: Q01DX009 (ip), vehicle: saline
# [5] = dose: 200.0 mg/kg/injection, schedule: Q01DX009 (ip), vehicle: saline
# [6] = dose: 400.0 mg/kg/injection, schedule: Q01DX009 (ip), vehicle: saline
# [7] = dose: 50.0 mg/kg/injection, schedule: Q01DX009 (ip), vehicle: Klucel (hydroxypropylcellulose) (HPC)
# [8] = dose: 8.0 mg/kg/injection, schedule: Q01DX009 (ip), vehicle: saline
# [9] = dose: 16.0 mg/kg/injection, schedule: Q01DX009 (ip), vehicle: saline
# [10] = dose: 100.0 mg/kg/injection, schedule: Q04DX003 (ip), vehicle: saline with Tween-80
# [11] = dose: 100.0 mg/kg/injection, schedule: Q01DX009 (ip), vehicle: saline with Tween-80
# [12] = dose: 200.0 mg/kg/injection, schedule: Q01DX009 (ip), vehicle: saline with Tween-80
# [13] = dose: 100.0 mg/kg/injection, schedule: Q04DX003 (ip), vehicle: saline
# [14] = dose: 200.0 mg/kg/injection, schedule: Q04DX003 (ip), vehicle: saline
# [15] = dose: 100.0 mg/kg/injection, schedule: Q01DX009 (ip), vehicle: Klucel (hydroxypropylcellulose) (HPC)
# [16] = dose: 25.0 mg/kg/injection, schedule: Q04DX003 (ip), vehicle: saline
# [17] = dose: 50.0 mg/kg/injection, schedule: Q04DX003 (ip), vehicle: saline
# [18] = dose: 400.0 mg/kg/injection, schedule: Q04DX003 (ip), vehicle: saline
structure (smiles),measurement,setting,value
CC1=C(CO)C(=O)O[C@@H]([C@@H](C)[C@H]2CC[C@H]3[C@@H]4C[C@H]5O[C@]56[C@@H](O)C=CC(=O)[C@]6(C)[C@H]4CC[C@]23C)C1,T/C,"dose: 5.0 mg/kg/injection, schedule: Q01DX010 (ip), vehicle: steriod suspending solution",95 % of control
same,T/C,"dose: 10.0 mg/kg/injection, schedule: Q01DX010 (ip), vehicle: steriod suspending solution",100 % of control
same,T/C,"dose: 20.0 mg/kg/injection, schedule: Q01DX010 (ip), vehicle: steriod suspending solution",90 % of control
same,T/C,"dose: 40.0 mg/kg/injection, schedule: Q01DX010 (ip), vehicle: steriod suspending solution",104 % of control
O=C(C(Br)C(Br)c1ccccc1)N1CCOCC1 (configuration not stated),T/C,[1],104 % of control
same,T/C,[2],100 % of control
same,T/C,"dose: 400.0 mg/kg/injection, schedule: Q04DX003 (ip), vehicle: saline sonified",113 % of control
O=c1oc2ccc(O)cc2c2ccccc12,T/C,"dose: 50.0 mg/kg/injection, schedule: Q04DX003 (ip), vehicle: saline sonified",95 % of control
same,T/C,[1],100 % of control
same,T/C,[2],104 % of control
CC12C=CC(=O)C=C1CCC1C3CCC(O)(C(=O)CO)C3(C)CC(O)C12F (configuration not stated),T/C,"dose: 25.0 mg/kg/injection, schedule: Q04DX003 (sc), vehicle: steriod suspending solution",113 % of control
same,T/C,"dose: 50.0 mg/kg/injection, schedule: Q04DX003 (sc), vehicle: steriod suspending solution",86 % of control
same,T/C,"dose: 56.25 mg/kg/injection, schedule: Q01DX009 (sc), vehicle: steriod suspending solution",100 % of control
same,T/C,"dose: 100.0 mg/kg/injection, schedule: Q04DX003 (sc), vehicle: steriod suspending solution",86 % of control
same,T/C,"dose: 112.5 mg/kg/injection, schedule: Q01DX009 (sc), vehicle: steriod suspending solution",118 % of control
same,T/C,"dose: 150.0 mg/kg/injection, schedule: Q04DX003 (sc), vehicle: steriod suspending solution",104 % of control
same,T/C,"dose: 225.0 mg/kg/injection, schedule: Q01DX009 (sc), vehicle: steriod suspending solution",104 % of control
same,T/C,"dose: 225.0 mg/kg/injection, schedule: Q04DX003 (sc), vehicle: steriod suspending solution",90 % of control
CC1C=CC(=O)O1 (configuration not stated),T/C,[3],105 % of control
same,T/C,[4],105 % of control
same,T/C,[5],112 % of control
same,T/C,[6],112 % of control
COc1ccc(C(C#N)N2CCCCC2)cc1 (configuration not stated),T/C,"dose: 12.5 mg/kg/injection, schedule: Q01DX009 (ip), vehicle: Klucel (hydroxypropylcellulose) (HPC)",115 % of control
same,T/C,"dose: 25.0 mg/kg/injection, schedule: Q01DX009 (ip), vehicle: Klucel (hydroxypropylcellulose) (HPC)",100 % of control
same,T/C,"dose: 25.0 mg/kg/injection, schedule: Q04DX003 (ip), vehicle: Klucel (hydroxypropylcellulose) (HPC)",113 % of control
same,T/C,[7],100 % of control
same,T/C,"dose: 50.0 mg/kg/injection, schedule: Q04DX003 (ip), vehicle: Klucel (hydroxypropylcellulose) (HPC)",100 % of control
same,T/C,"dose: 100.0 mg/kg/injection, schedule: Q04DX003 (ip), vehicle: Klucel (hydroxypropylcellulose) (HPC)",100 % of control and 104 % of control
CSCCCNC(=O)c1csc(-c2csc(CCNC(=O)c3ccccc3)n2)n1,T/C,[8],100 % of control
same,T/C,[9],100 % of control
same,T/C,"dose: 32.0 mg/kg/injection, schedule: Q01DX009 (ip), vehicle: saline",110 % of control
same,T/C,"dose: 64.0 mg/kg/injection, schedule: Q01DX009 (ip), vehicle: saline",120 % of control
CC12CCC(=O)C=C1CCC1C2CCC2(C)C(OP(=O)(N3CC3)N3CC3)CCC12 (configuration not stated),T/C,[10],110 % of control
COc1cccc(CCNC(=O)CCN2C(=O)c3ccccc3C2=O)c1,T/C,[11],95 % of control
same,T/C,[12],109 % of control
same,T/C,"dose: 400.0 mg/kg/injection, schedule: Q01DX009 (ip), vehicle: saline with Tween-80",100 % of control
C#CCSc1ncnc2nc[nH]c12,T/C,[13],100 % of control
same,T/C,[14],100 % of control
CC(CC(C)(C)C)C(=O)CCC(C)(C)C (configuration not stated),T/C,"dose: 100.0 mg/kg/injection, schedule: Q01DX001 (ip), vehicle: saline with Tween-80",104 % of control
same,T/C,"dose: 200.0 mg/kg/injection, schedule: Q01DX001 (ip), vehicle: saline with Tween-80",100 % of control
same,T/C,"dose: 400.0 mg/kg/injection, schedule: Q01DX001 (ip), vehicle: saline with Tween-80",109 % of control
Nc1nc(SSc2nc(N)nc3c2ncn3C2CC(O)C(CO)O2)c2ncn(C3CC(O)C(CO)O3)c2n1 (configuration not stated),T/C,[7],150 % of control
same,T/C,[15],100 % of control
Nc1nncs1,T/C,"dose: 7.8 mg/kg/injection, schedule: Q01DX010 (ip), vehicle: saline",118 % of control
same,T/C,"dose: 12.5 mg/kg/injection, schedule: Q01DX010 (ip), vehicle: saline",100 % of control
same,T/C,"dose: 15.6 mg/kg/injection, schedule: Q01DX010 (ip), vehicle: saline",154 % of control
same,T/C,"dose: 25.0 mg/kg/injection, schedule: Q01DX010 (ip), vehicle: saline",163 % of control
same,T/C,[16],118 % of control
same,T/C,"dose: 50.0 mg/kg/injection, schedule: Q01DX010 (ip), vehicle: saline",190 % of control
same,T/C,"dose: 100.0 mg/kg/injection, schedule: Q01DX010 (ip), vehicle: saline",100 % of control
same,T/C,[13],172 % of control
same,T/C,"dose: 108.0 mg/kg/injection, schedule: Q04DX003 (ip), vehicle: saline",154 % of control
same,T/C,"dose: 173.0 mg/kg/injection, schedule: Q04DX003 (ip), vehicle: other",179 % of control
same,T/C,"dose: 180.0 mg/kg/injection, schedule: Q04DX003 (ip), vehicle: saline",208 % of control
same,T/C,[14],181 % of control
same,T/C,"dose: 288.0 mg/kg/injection, schedule: Q04DX003 (ip), vehicle: other",212 % of control
CC1(c2cccc3ccccc23)NC(=O)c2ccccc2N1 (configuration not stated),T/C,[7],105 % of control
same,T/C,[15],120 % of control
CC(=O)c1ccccc1[N+](=O)[O-],T/C,"dose: 50.0 mg/kg/injection, schedule: Q01DX009 (ip), vehicle: saline with Tween-80",95 % of control
same,T/C,[11],100 % of control
same,T/C,[10],95 % of control
same,T/C,[12],86 % of control
same,T/C,"dose: 200.0 mg/kg/injection, schedule: Q04DX003 (ip), vehicle: saline with Tween-80",90 % of control
same,T/C,"dose: 400.0 mg/kg/injection, schedule: Q04DX003 (ip), vehicle: saline with Tween-80",100 % of control
CN(C)C(=S)S,T/C,[17],103 % of control
same,T/C,[13],103 % of control
same,T/C,[14],105 % of control
same,T/C,[18],117 % of control
Cc1c(C)c2ccc(N)cc2[nH]c1=O,T/C,"dose: 2.0 mg/kg/injection, schedule: Q01DX009 (ip), vehicle: saline",118 % of control
same,T/C,"dose: 4.0 mg/kg/injection, schedule: Q01DX009 (ip), vehicle: saline",105 % of control
same,T/C,[8],99 % of control
same,T/C,[9],118 % of control
same,T/C,[16],98 % of control
same,T/C,[17],106 % of control
same,T/C,[13],106 % of control
same,T/C,[14],104 % of control
same,T/C,[18],107 % of control
Cc1ccc(S(=O)(=O)N/N=C/C(O)CO)cc1 (configuration not stated),T/C,"dose: 3.13 mg/kg/injection, schedule: Q01DX009 (ip), vehicle: other",98 % of control
same,T/C,"dose: 6.25 mg/kg/injection, schedule: Q01DX009 (ip), vehicle: other",91 % of control
same,T/C,"dose: 12.5 mg/kg/injection, schedule: Q01DX009 (ip), vehicle: other",98 % of control and 101 % of control
same,T/C,"dose: 25.0 mg/kg/injection, schedule: Q01DX009 (ip), vehicle: other",98 % of control
same,T/C,"dose: 50.0 mg/kg/injection, schedule: Q01DX009 (ip), vehicle: other",96 % of control
same,T/C,"dose: 100.0 mg/kg/injection, schedule: Q01DX009 (ip), vehicle: other",99 % of control
same,T/C,"dose: 200.0 mg/kg/injection, schedule: Q01DX009 (ip), vehicle: other",98 % of control
same,T/C,"dose: 400.0 mg/kg/injection, schedule: Q01DX009 (ip), vehicle: other",102 % of control
CC1CCC(C)C1NC1=NCCO1 (configuration not stated),T/C,"dose: 6.25 mg/kg/injection, schedule: Q01DX009 (ip), vehicle: saline with Tween-80",109 % of control
same,T/C,"dose: 12.5 mg/kg/injection, schedule: Q01DX009 (ip), vehicle: saline with Tween-80",100 % of control
same,T/C,"dose: 25.0 mg/kg/injection, schedule: Q01DX009 (ip), vehicle: saline with Tween-80",104 % of control
Nc1ccc(Nc2ccccc2)c(S(=O)(=O)O)c1,T/C,[3],116 % of control
same,T/C,[4],100 % of control
same,T/C,[5],108 % of control
same,T/C,[6],104 % of control and 116 % of control
